{"source": "patent US9937144B2", "about": "“Treatment of drug abuse by preventing GAPDH nitrosylation” (THE JOHNS HOPKINS UNIVERSITY, priority 2013, dated 2018)", "key": {"mice [1]": {"tested_on": "mice", "conditions": "for cocaine's locomotor activation, MAO-B inhibitor combined with cocaine: i.p. for 5 days, cocaine 30 mg/kg i.p., total beam breaks, FIGS. 4G and 4H", "method": "Open-Field Test. Open-field assessments were conducted as described (Levine et al., 2011; Maze et al., 2010) with brief modifications. The open field is a square arena with the dimensions 47 cm 3 47 cm with a 38.1 cm high clear plastic wall. Activity chambers were computer interfaced for data sampling. Sixteen infrared photobeams in each direction (16×16), 2.77 cm spacing, were used to record movement. The San Diego PAS software recorded the total number of beam breaks, as well as the beam break's location in the center and peripheral areas.\nMice were divided in 5 groups (n=10-12 each). Each group of mice were injected (i.p.) with either CGP3466B or the MAO-B inhibitors deprenyl, rasagiline, lazabemide, and pargyline for 5 days. Mice were allowed to acclimate to the apparatus for 1 hr. After 60 min, mice received saline or cocaine (30 mg/kg of cocaine i.p.), and were returned to the open-field apparatus for a subsequent 75 min in which their activity was recorded. All data was measured in 5 min intervals and aggregated as necessary. Beam breaks or distance traveled for 20 min following cocaine/saline intraperitoneal injection after the first stage of testing were used to determine immediate peak locomotor response from cocaine injection. In between testing of mice, the arena was wiped with Vimoba cleaning solution. Mice were tested at the same time every day in order to minimize any variation due to circadian rhythm changes."}, "mice [2]": {"tested_on": "mice", "test": "Conditioned place preference", "type": "in vivo", "method": "Conditioned Place Preference. The test was performed as described previously (Levine et al., 2011; Maze et al., 2010; Xi et al., 2011) with minor modifications. Two groups of wild-type mice were used to study the effect of CGP 3466B (0.15 mg/kg) on cocaine-(7 mg/kg) induced conditioned place preference or aversion. A three-chamber place preference apparatus was used. This apparatus consisted of two large side compartments and one small central compartment, which separated the large compartments. Two of the large compartments had different visual and tactile cues. One of the large compartments contained a green wire mesh floor. The second large compartment contained a cream-colored rubber floor. […]\nWild mice were divided into two groups. […] Experimental software (Any-Maze Video Tracking System v. 4.72) measured the amount of time each mouse spent in each of the three compartments.\nFor the next 10 days (days 2-11), mice entered the conditioning stage of testing with one session per day. […] On the probe trial day (24 hr after the last conditioning session), mice were given an injection of saline then were allowed to freely explore the three compartments for 15 min the time spent in each of the compartments was recorded by computer software. CPP score was calculated as time spent in cocaine chamber minus the time spent in saline/CGP3466B treated chamber."}, "[3]": {"biological_target": "T1, nitrosylation of GAPDH (SNO-GAPDH) (Mus musculus, UniProt P16858)", "T1 sequence (P16858 whole entry)": "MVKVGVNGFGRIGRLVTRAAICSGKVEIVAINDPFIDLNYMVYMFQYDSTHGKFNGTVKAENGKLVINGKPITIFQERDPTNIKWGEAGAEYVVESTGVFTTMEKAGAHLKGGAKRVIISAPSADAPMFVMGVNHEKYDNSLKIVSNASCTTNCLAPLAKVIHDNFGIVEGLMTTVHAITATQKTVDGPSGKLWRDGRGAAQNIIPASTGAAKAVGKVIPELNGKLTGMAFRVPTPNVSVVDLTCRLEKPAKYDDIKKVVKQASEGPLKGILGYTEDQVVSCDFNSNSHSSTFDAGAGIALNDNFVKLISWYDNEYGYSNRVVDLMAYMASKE", "test": "S-nitrosylation biotin switch assay in cocaine-treated primary cortical neurons", "type": "cell-based", "conditions": "16 hr, deprenyl 2 nM, FIG. 4A", "source_text": "S-nitrosvlation biotin switch assay."}, "p53, PUMA": {"tested_on": "p53, PUMA", "test": "p53 activation and PUMA induction in striatum after neurotoxic cocaine doses", "type": "in vivo, mice", "method": "Sample Preparation from Cocaine-Injected Mice.\nChromatin immunoprecipitation (ChIP) assay.\nCo-Immunoprecipitation. Striatum tissue were lysed in lysis buffer (50 mM Tris pH 7.4, 150 mM NaCl, 0.1% Chaps, 100 nM deferoxamine and 1 mM EDTA) and homogenized by passing through a 26-gauge needle. Crude lysates were cleared of insoluble debris by centrifugation at 14,000 g. IP buffer (50 mM Tris pH 7.4, 150 mM NaCl, 0.1% Chaps, 100 μM deferoxamine, 1 mM EDTA and 0.1 mg/ml BSA) was added to […] of cell lysates to bring samples to a total volume of 1 ml. Anti-Siah and anti-SUV39H1 antibody and 30 μl of protein G agarose were added and incubated on a rotator at 4° C. The protein G agarose was washed four times with lysis buffer and quenched with 30 μl of SDS sample buffer. Co-immunoprecipitates were resolved by SDS-PAGE and analyzed by western blotting with anti-GAPDH and anti-SUV39H1 antibodies."}, "striatum": {"tested_on": "striatum", "test": "TUNEL assay of cell death in striatum induced by cocaine", "type": "in vivo, mice", "conditions": "for cocaine induced cell death in striatum: MAO-B inhibitors with cocaine, FIG. 9B", "method": "(§1) TUNEL assay. Primary neurons were grown on coverslips with a density of […] per 12-well. Cells were treated with deprenyl (2 μM), rasagaline (10 μM), lazabemide (10 μM) or pargyline (10 μM) for 16 hr and cell death was measured by TUNEL assays using TUNEL enzyme (Roche) and TUNEL label (Roche) following the manufacturer's instructions (Kickstein et al., 2010). To analysis cell death induced by neurotoxic dose of cocaine, we used TUNEL apoptosis detection kit (Millipore) using manufacturer's protocol (Lathia et al., 2010). Positive nuclei were counted in 30 fields (×400) for each slide."}, "mice [4]": {"tested_on": "mice", "test": "Rotarod performance", "type": "in vivo", "conditions": "for rotarod performance with cocaine: 5 days: deprenyl 0.25, rasagiline 2.5, pargyline 50, lazabemide 50 mg/kg, then cocaine 50 mg/kg, FIG. 9C", "method": "Rotarod Performance. The test was performed as described previously (Xi et al., 2011) with minor modifications. A four-station mouse rotarod device (AccuScan Instruments) was used to study the effects of CGP3466B, Deprenyl, Rasagiline, Lazabemide and Pargyline on cocaine induced operant locomotion in mice. The speed of rotation of the rotarod was increased from 4 to 32 rpm over 7 min.\nMice were divided into 5 groups (n=8). For 5 days prior to testing mice received one dose of deprenyl (0.25 mg/kg), rasagiline (2.5 mg/kg), pargyline (50 mg/kg), lazabemide (50 mg/kg), or saline followed by a high dose of cocaine (50 mg/kg). Mice were placed on the rotarod at a starting speed of 4 rpm, and the speed of the rotarod was increased to 32 rpm over the course of 7 min. This was repeated for a total of three trials in a day, and the latency at which the mice fell off the rotarod was recorded. Mice were tested at the same time every day in order to minimize any variation due to circadian rhythm changes."}, "Body weight of mice": {"test": "Body weight of mice", "type": "in vivo", "conditions": "FIG. 8B"}, "GAPDH nitrosylation [5]": {"biological_target": "GAPDH nitrosylation (Homo sapiens, UniProt P04406)", "sequence (P04406 whole entry)": "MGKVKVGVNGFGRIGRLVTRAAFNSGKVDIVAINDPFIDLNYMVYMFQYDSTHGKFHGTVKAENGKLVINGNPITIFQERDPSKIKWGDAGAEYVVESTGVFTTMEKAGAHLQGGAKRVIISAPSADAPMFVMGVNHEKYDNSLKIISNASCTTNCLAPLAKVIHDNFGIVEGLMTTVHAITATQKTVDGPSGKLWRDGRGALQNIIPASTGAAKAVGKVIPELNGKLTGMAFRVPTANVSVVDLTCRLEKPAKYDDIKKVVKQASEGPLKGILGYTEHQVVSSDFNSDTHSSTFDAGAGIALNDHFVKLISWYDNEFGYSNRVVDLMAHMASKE", "conditions": "cited from earlier work; for GAPDH nitrosylation in vitro: as reported earlier (Hara et al., 2006)"}, "GAPDH binding to Siah1": {"biological_target": "GAPDH binding to Siah1 (Homo sapiens, UniProt P04406)", "sequence (P04406 whole entry)": "as above", "conditions": "resultant of prevented GAPDH nitrosylation; cited from earlier work"}, "monoamine oxidase": {"tested_on": "monoamine oxidase", "conditions": "Hara et al., 2006; cited from earlier work"}, "GAPDH nitrosylation [6]": {"biological_target": "T2, GAPDH nitrosylation (Mus musculus, UniProt P16858)", "T2 construct": "in the brains of mice treated with the neurotoxic agent; host or cells: mouse brain", "T2 sequence (P16858 whole entry)": "as the sequence (P16858 whole entry) above", "conditions": "as reported earlier (Hara et al., 2006); cited from earlier work"}, "GAPDH": {"biological_target": "GAPDH (Mus musculus, UniProt P16858)", "sequence (P16858 whole entry)": "as above", "test": "Nuclear translocation of GAPDH in striatum of cocaine-treated mice"}, "[7]": {"biological_target": "T1, nitrosylation of GAPDH (SNO-GAPDH)", "test": "S-nitrosylation biotin switch assay on striatum lysates of cocaine-injected mice"}, "[8]": {"tested_on": "SUV39H1, H3K9 trimethylation, c-fos", "test": "Western blot/ChIP of striatum after behavioral-stimulant cocaine doses (SUV39H1, H3K9 trimethylation, c-fos)"}, "primary cortical neurons": {"tested_on": "primary cortical neurons", "conditions": "TUNEL, 16 hr; deprenyl 2 μM, rasagiline, lazabemide, pargyline 10 μM; FIG. 4B", "method": "as §1"}}, "data": [{"smiles": "C#CCN(C)CC1=Cc2ccccc2Oc2ccccc21", "note": "[CGP3466B, N-(dibenz(b,f)oxepin-10-ylmethyl)-N-methyl-N-prop-2-ynylamine]", "values": [{"measurement": "locomotor stimulation by cocaine", "setting": "mice [1]; CGP3466B 0.15 mg/kg IP once a day for 5 days, cocaine on the fifth day, open field, FIG. 3H", "result": "substantially reduces"}, {"measurement": "basal locomotor activity", "setting": "mice [1]; CGP3466B 0.15 mg/kg, no cocaine", "result": "no effect"}, {"measurement": "central or peripheral movement", "setting": "mice [1]; mouse, in vivo", "result": "no adverse effects"}, {"measurement": "locomotor stimulation in nNOS knockout mice treated with cocaine", "setting": "mice [1]; nNOS knockout mice, FIG. 3I", "result": "does not further decrease"}, {"measurement": "cocaine preference (conditioned place preference)", "setting": "mice [2]; CGP3466B 0.15 mg/kg 2 hr before each conditioning injection, cocaine 7 mg/kg, FIG. 3J", "result": "reduced"}, {"measurement": "conditioned place preference, single dose only on the day of testing", "setting": "mice [2]; mice conditioned in the absence of CGP3466B, FIG. 6D", "result": "failed to alter"}, {"measurement": "cocaine-induced nitrosylation of GAPDH in cortical cultures", "setting": "[3]", "result": "prevents"}, {"measurement": "induction of PUMA level", "setting": "p53, PUMA; FIG. 5E", "result": "blocks"}, {"measurement": "activation of p53", "setting": "p53, PUMA; FIGS. 5C and 5D", "result": "blocks"}, {"measurement": "apoptosis (TUNEL) in striatum induced by cocaine", "setting": "striatum; cocaine 30 and 50 mg/kg, chronic treatment with CGP3466B, FIG. 5F", "result": "markedly reduces"}, {"measurement": "increase of latency for falling off the rod", "setting": "mice [4]; co-treatment with CGP3466B, cocaine 50 mg/kg, FIG. 5G", "result": "2.5- to 3 fold"}, {"measurement": "body weight", "setting": "Body weight of mice", "result": "no adverse effects"}, {"measurement": "GAPDH nitrosylation in vitro", "setting": "GAPDH nitrosylation [5]", "result": "potently inhibits"}, {"measurement": "concentrations at which nitrosylation of GAPDH is prevented", "setting": "GAPDH nitrosylation [5]", "result": "subnanomolar"}, {"measurement": "GAPDH binding to Siah1", "setting": "GAPDH binding to Siah1", "result": "inhibition"}, {"measurement": "monoamine oxidase inhibitory activity", "setting": "monoamine oxidase", "result": "lack monoamine oxidase inhibitory activity"}, {"measurement": "GAPDH nitrosylation in the brains of mice treated with MPTP", "setting": "GAPDH nitrosylation [6]", "result": "potently inhibits"}, {"measurement": "cocaine-elicited nuclear translocation of GAPDH", "setting": "GAPDH; behavioral-stimulant doses of cocaine, FIG. 3C", "result": "prevents"}, {"measurement": "nuclear translocation of GAPDH at higher doses of cocaine", "setting": "GAPDH; cocaine 30-50 mg/kg daily for 5 days, FIG. 5B", "result": "prevented"}, {"measurement": "stimulation of GAPDH nitrosylation in striatum elicited by cocaine", "setting": "[7]; 0.15 mg/kg CGP3466B, behavioral-stimulant doses of cocaine (5-30 mg/kg), FIG. 7A", "result": "almost completely blocks"}, {"measurement": "nitrosylation of GAPDH in the striatum elicited by higher doses of cocaine", "setting": "[7]; cocaine 30-50 mg/kg daily for 5 days with or without CGP3466B, FIG. 5A", "result": "abolished"}, {"measurement": "cocaine-elicited change of H3K9 trimethylation", "setting": "[8]; FIG. 3E", "result": "prevented"}, {"measurement": "degradation of SUV39H1", "setting": "[8]; behavioral-stimulant doses of cocaine, FIG. 3D", "result": "blocks"}, {"measurement": "stimulation of c-fos expression", "setting": "[8]; behavioral-stimulant doses of cocaine, FIGS. 3F-3G", "result": "blocks"}]}, {"smiles": "C#CCN[C@@H]1CCc2ccccc21", "note": "[rasagiline]", "values": [{"measurement": "cocaine's locomotor activation, MAO-B inhibitor combined with cocaine", "setting": "mice [1]", "result": "greater locomotor stimulation than cocaine alone"}, {"measurement": "cocaine-induced nitrosylation of GAPDH in cortical cultures", "setting": "[3]", "result": "do not prevent"}, {"measurement": "cocaine induced cell death in striatum", "setting": "striatum", "result": "do not rescue"}, {"measurement": "rotarod performance with cocaine", "setting": "mice [4]", "result": "do not improve"}]}, {"smiles": "C#CCN(C)Cc1ccccc1", "note": "[pargyline]", "values": [{"measurement": "cocaine's locomotor activation, MAO-B inhibitor combined with cocaine", "setting": "mice [1]", "result": "greater locomotor stimulation than cocaine alone"}, {"measurement": "cocaine-induced nitrosylation of GAPDH in cortical cultures", "setting": "[3]", "result": "do not prevent"}, {"measurement": "cocaine induced cell death in striatum", "setting": "striatum", "result": "do not rescue"}, {"measurement": "rotarod performance with cocaine", "setting": "mice [4]", "result": "do not improve"}]}, {"smiles": "NCCNC(=O)c1ccc(Cl)cn1", "note": "[lazabemide]", "values": [{"measurement": "cocaine's locomotor activation, MAO-B inhibitor combined with cocaine", "setting": "mice [1]", "result": "greater locomotor stimulation than cocaine alone"}, {"measurement": "cocaine-induced nitrosylation of GAPDH in cortical cultures", "setting": "[3]", "result": "do not prevent"}, {"measurement": "cocaine induced cell death in striatum", "setting": "striatum", "result": "do not rescue"}, {"measurement": "rotarod performance with cocaine", "setting": "mice [4]", "result": "do not improve"}]}, {"smiles": "C#CCN(C)[C@H](C)Cc1ccccc1", "note": "[deprenyl, R-(−)-N-methyl-N-(prop-2-ynyl)-2-aminophenylpropane]", "values": [{"measurement": "cocaine's locomotor activation, MAO-B inhibitor combined with cocaine", "setting": "mice [1]", "result": "significantly decreases"}, {"measurement": "cocaine-induced nitrosylation of GAPDH in cortical cultures", "setting": "[3]", "result": "prevents"}, {"measurement": "cell survival / cell death of primary cortical neurons", "setting": "primary cortical neurons", "result": "no effect"}, {"measurement": "cocaine induced cell death in striatum", "setting": "striatum", "result": "do not rescue"}, {"measurement": "rotarod performance with cocaine", "setting": "mice [4]", "result": "do not improve"}, {"measurement": "GAPDH nitrosylation in vitro", "setting": "GAPDH nitrosylation [5]", "result": "potently inhibits"}, {"measurement": "GAPDH nitrosylation in the brains of mice treated with MPTP", "setting": "GAPDH nitrosylation [6]", "result": "potently inhibits"}]}]}
